Assays:
[1] = system: redstem; assay: Test F flood (paddy) test; type: in vivo, Ammannia coccinea; settings: 21 d, scale 0-100
Text: (§1) Three plastic pots (ca. 16-cm diameter) per rate were partially filled with sterilized Tama silt loam soil comprising a 35:50:15 ratio of sand, silt and clay and 2.6% organic matter. Separate plantings for each of the three pots were as follows. Seeds from the U.S. of monochoria (Monochoria vaginalis), sedge, umbrella (small-flower umbrella sedge, Cyperus difformis), bulrush, […] bulrush, Scirpus juncoides), and […] (purple […] coccinea), were planted into one 16-cm pot for each rate. Seeds from the U.S. of flatsedge, rice (rice flatsedge, Cyperus iria), sprangletop, Brdd. (bearded sprangletop, Leptochloa fascicularis), one stand of 9 or 10 water seeded rice seedlings (Rice, W.S. Jap, Oryza sativa cv. 'Japonica-[…]' or Rice, W.S. Ind, 'Indica'), and two stands of 3 or 4 seedlings of rice, transplanted (transplanted rice, Oryza sativa cv. 'Japonica-[…]') were planted into one 16-cm pot for each rate. Seeds from the U.S. of barnyardgrass (Echinochloa crus-galli), […] (common […], Alisma plantago-aquatica), and watergrass, late (late watergrass, Echinochloa oryzicola) were planted into one 16-cm pot for each rate. Plantings were sequential so that crop and weed species were at the 2.0 to 2.5-leaf stage at time of treatment. Potted plants were grown in a greenhouse with day/night temperature settings of 30/27° C., and supplemental balanced lighting was provided to maintain a 16-h photoperiod. Test pots were maintained in the greenhouse until test completion. At time of treatment, test pots were flooded to 3 cm above the soil surface, treated by application of test compounds directly to the paddy water, and then maintained at that water depth for the duration of the test. Effects of treatments on rice and weeds were visually evaluated by comparison to untreated controls after 21 d. Plant response ratings, summarized in Table F, are based on a scale of 0 to 100 where 0 is no effect and 100 is complete control. A dash (-) response means no test result.

[2] = system: Rice, W.S. Jap; assay: Test F flood (paddy) test; type: in vivo, Oryza sativa cv. Japonica—M202; settings: 21 d, scale 0-100
Text: as §1

[3] = system: bulrush, hardstem; assay: Test F flood (paddy) test; type: in vivo, Scirpus juncoides; settings: 21 d, scale 0-100
Text: as §1, with “Potted plants were grown in a greenhouse with day/night temperature settings of 30/27° C., and supplemental balanced lighting was provided to maintain a 16-h photoperiod. Test pots were maintained in the greenhouse until test completion. At time of treatment, test pots were flooded to 3 cm above the soil surface, treated by application of test compounds directly to the paddy water, and then maintained at that water depth for the duration of the test.” left out, “Plant response ratings, summarized in Table F, are based on a scale of 0 to 100 where 0 is no effect and 100 is complete control. A dash (-) response means no test result.” left out

[4] = system: pigweed, palmer; assay: Test E preemergence herbicide test; type: in vivo, Amaranthus palmeri; set-up: key: 0 = no effect, 100 = complete control
Text: Seeds of plant species selected from corn (Zea mays), soybean (Glycine max), velvetleaf (Abutilon theophrasti), lambsquarters (Chenopodium album), wild poinsettia (Euphorbia heterophylla), pigweed, palmer (palmer pigweed, Amaranthus palmeri), waterhemp (common waterhemp, Amaranthus rudis), surinam grass (Brachiaria decumbens), crabgrass, large (large crabgrass, Digitaria sanguinalis), crabgrass, Brazil (Brazilian crabgrass, Digitaria horizontalis), panicum, fall (fall panicum, Panicum dichotomiflorum), foxtail, giant (giant foxtail, Setaria faberii), foxtail, green (green foxtail, Setaria viridis), goosegrass (Eleusine indica), johnsongrass (Sorghum halepense), ragweed (common ragweed, Ambrosia elatior), barnyardgrass (Echinochloa crus-galli), sandbur (southern sandbur, Cenchrus echinatus), arrowleaf […] rhombifolia), ryegrass, Italian (Italian ryegrass, Lolium multiflorum), dayflower, VA (Virginia dayflower, Commelina virginica), field bindweed (Convolvulus arvensis), morningglory (Ipomoea coccinea), nightshade (eastern black nightshade, Solanum ptycanthum), kochia (Kochia scoparia), nutsedge, yellow (yellow nutsedge, Cyperus esculentus), cocklebur (common cocklebur, Xanthium strumarium), smartweed (ladysthumb smartweed, Polygonum Persicaria) and beggarticks (hairy beggarticks, Bidens pilosa), were planted into a silt loam soil and treated preemergence with test chemicals formulated in a non-phytotoxic solvent mixture which included a surfactant. Treated plants and controls were maintained in a greenhouse for 21 days, after which time all species were compared to controls and visually evaluated. Plant response ratings, summarized in Table E, are based on a scale of 0 to 100 where 0 is no effect and 100 is complete control. A dash (-) response means no test result.

[5] = system: deadnettle; assay: Test C postemergence herbicide test; type: in vivo, Lamium amplexicaule
Text: At the same time, plants selected from these crop and weed species and also barley (winter barley, Hordeum vulgare), […]), chickweed (common chickweed, Stellaria media), deadnettle (henbit deadnettle, Lamium amplexicaule), and canarygrass (littleseed canarygrass, Phalaris minor) were planted in pots containing Redi-Earth® planting medium (Scotts Company, 14111 Scottslawn Road, Marysville, Ohio 43041) comprising spaghnum peat moss, vermiculite, wetting agent and starter nutrients and treated with postemergence applications of test chemicals formulated in the same manner. Plants ranged in height from 2 to 18 cm (1- to 4-leaf stage) for postemergence treatments. Treated plants and controls were maintained in a greenhouse for 13 to 15 days, after which time all species were compared to controls and visually evaluated. Plant response ratings, summarized in Table C, are based on a scale of 0 to 100 where 0 is no effect and 100 is complete control. A dash (-) response means no test result.

[6] = system: Rice, W.S. Ind; assay: Test F flood (paddy) test; type: in vivo, Oryza sativa Indica; settings: 21 d, scale 0-100
Text: as §1

[7] = system: waterplantain; assay: Test F flood (paddy) test; type: in vivo, Alisma plantago-aquatica; settings: 21 d, scale 0-100
Text: as §1

**Q.** Which “Plant response rating, Redstem” value ([1]; 250 g ai/ha) does the source give for O=C1NCC(c2cccc(C(F)(F)F)c2)C1C(=O)Nc1ccccc1F (racemic) [Compound 3] here?
**A.** Its value is 0.

**Q.** What about the “Plant response rating, Redstem” value ([1]; 500 g ai/ha) of the same compound?
**A.** Its value is 20.

**Q.** And the “Plant response rating, Rice, W.S. Jap” value ([2]; 250 g ai/ha)?
**A.** The value was 0.

**Q.** What about the “Plant response rating, Rice, W.S. Jap” value ([2]; 500 g ai/ha) of the same compound?
**A.** The value was 10.

**Q.** What about the “Plant response rating, Bulrush, Hardstem” value ([3]; 250 g ai/ha) of the same compound?
**A.** Its value is 0.

**Q.** And the “Plant response rating, Bulrush, Hardstem” value ([3]; 500 g ai/ha)?
**A.** The value was 30.

**Q.** O=C1NCC(c2ccc(F)cc2)C1C(=O)Nc1ccccc1F (racemic) [Compound 16] was tested. Which “Plant response rating, Pigweed, Palmer” value ([4]; 16 g ai/ha) did it give?
**A.** Its value is 0.

**Q.** What about the “Plant response rating, Pigweed, Palmer” value ([4]; 31 g ai/ha) of the same compound?
**A.** Its value is 0.

**Q.** And the “Plant response rating, Pigweed, Palmer” value ([4]; 62 g ai/ha)?
**A.** The value was 0.

**Q.** What about the “Plant response rating, Pigweed, Palmer” value ([4]; 125 g ai/ha) of the same compound?
**A.** Its value is 0.

**Q.** What about the “Plant response rating, Pigweed, Palmer” value ([4]; 250 g ai/ha) of the same compound?
**A.** The value was 0.

**Q.** With O=C1NCC(c2cc(F)c(F)c(F)c2)C1C(=O)Nc1ccccc1F (racemic) [Compound 34] as the compound, how does the “Plant response rating, Deadnettle” value ([5]; 31 g ai/ha, scale 0 (no effect) to 100 (complete control)) read?
**A.** The value was 0.

**Q.** What about the “Plant response rating, Deadnettle” value ([5]; 62 g ai/ha, scale 0 to 100 (0 no effect, 100 complete control)) of the same compound?
**A.** The value was 0.

**Q.** And the “Plant response rating, Deadnettle” value ([5]; 125 g ai/ha, scale 0 to 100 (0 no effect, 100 complete control))?
**A.** Its value is 0.

**Q.** And the “Plant response rating, Deadnettle” value ([5]; 250 g ai/ha, scale 0 to 100 (0 no effect, 100 complete control))?
**A.** Its value is 0.

**Q.** Which results are given for O=C1NCC(c2cccc(C(F)(F)F)c2)C1C(=O)Nc1ccc(F)cc1F (racemic) [Compound 207]?
**A.** Plant response rating, Rice, W.S. Ind ([6]; 125 g ai/ha): 0; Plant response rating, Rice, W.S. Ind ([6]; 250 g ai/ha): 0; Plant response rating, Rice, W.S. Ind ([6]; 500 g ai/ha): 10

**Q.** What does the source list for O=C1NCC(c2ccc(C(F)(F)F)c(F)c2)C1C(=O)Nc1cccc(F)c1F (racemic) [Compound 247]?
**A.** Plant response rating, Redstem ([1]; 125 g ai/ha): 0; Plant response rating, Redstem ([1]; 250 g ai/ha): 0; Plant response rating, Redstem ([1]; 500 g ai/ha): 0; Plant response rating, Redstem ([1]; 1000 g ai/ha): 50; Plant response rating, Redstem ([1]; 2000 g ai/ha): 55; Plant response rating, Waterplantain ([7]; 125 g ai/ha): 80; Plant response rating, Waterplantain ([7]; 250 g ai/ha): 85; Plant response rating, Waterplantain ([7]; 500 g ai/ha): 90; Plant response rating, Waterplantain ([7]; 1000 g ai/ha): 90; Plant response rating, Waterplantain ([7]; 2000 g ai/ha): 90

**Q.** Which “Plant response rating, Pigweed, Palmer” value ([4]; 31 g ai/ha) does the source give for O=C1NCC(c2ccc(C(F)(F)F)cc2)C1C(=O)Nc1ccc(F)c(F)c1F (stereo not drawn) [Compound 232] here?
**A.** Its value is 0.

**Q.** And the “Plant response rating, Pigweed, Palmer” value ([4]; 62 g ai/ha)?
**A.** Its value is 0.

**Q.** And the “Plant response rating, Pigweed, Palmer” value ([4]; 125 g ai/ha)?
**A.** Its value is 80.

**Q.** And the “Plant response rating, Pigweed, Palmer” value ([4]; 250 g ai/ha)?
**A.** The value was 65.

**Q.** Which “Plant response rating, Rice, W.S. Ind” value ([6]; 64 g ai/ha) does the source give for CN1CC(c2ccc(F)cc2)C(C(=O)Nc2cccc(F)c2F)C1=O (stereo not drawn) [Compound 271] here?
**A.** The value was 0.

**Q.** And the “Plant response rating, Rice, W.S. Ind” value ([6]; 125 g ai/ha)?
**A.** The value was 15.

**Q.** And the “Plant response rating, Rice, W.S. Ind” value ([6]; 250 g ai/ha)?
**A.** Its value is 30.

**Q.** What about the “Plant response rating, Rice, W.S. Ind” value ([6]; 500 g ai/ha) of the same compound?
**A.** The value was 60.
